For data set [1] the following is noted: topically-applied; cited from earlier work.
Data set [2] deals with bacterial counts on hands. The settings on record: Triclosan (0.1%), after a 1-minute hygienic handwash; cited from earlier work.
For data set [3] the following is noted: cited from earlier work.
The subject of data set [4] is methicillin-resistant Staphylococcus aureus (MRSA). Nature of the data set: Bactericidal assay (MBC), subculture of dilutions on TSB agar. In kind it is cell-based. The settings on record: challenge with 1×10^4 MRSA.
Protocol: S. aureus maintained as a frozen culture with 10% (v/v) glycerol at −80° C. was thawed and then propagated on trypticase soy broth (TSB) or agar plates at room temperature (R.T.); determinations for Most Probable Number (MPN) in given samples were performed at 37° C., using standard assay techniques.
Tested sanitizers comprised commercially available gel products (i.e., “Brand A” and “Brand B”) from two manufacturers; these gels were comprised substantially of ethanol (60-70% w/w). […] Additional prototype liquid preparations (“Brand C1” and “Brand C2”) were substantially comprised of mixtures of alcohol (60-70% ethanol or isopropanol, w/w) combined with triclosan (approximately 0.04% w/w). Finally, triclosan was added to certain of the commercially available products (Brand B) to yield modified products containing triclosan at a level of approximately 0.04% w/w (“Brand B1”).
Killing of bacteria at each dilution (i.e., minimum bactericidal concentration, MBC) was determined by removing 5 μL aliquots and subculturing these on the surface of a TSB agar plate. Plates were incubated overnight at 37° C. and observed for growth. Studies were performed at 30 sec, at 5, 10, and 30 min, and at 1, 2, 4, and 8 hours after adding the challenge bacteria.
The next data set has as its system bacteria. The settings on record: MMWR/RR-16; cited from earlier work.
For a further data set, the system named is S. aureus. The settings on record: against S. aureus; Johnson et al. 2002; cited from earlier work.
The next data set relates to E. coli. The settings on record: against E. coli; Johnson et al. 2002; cited from earlier work.

The source of these data is patent publication US20040214785A1, “Surface sanitizing compositions with improved antimicrobial performance” (priority 2003, published 2004).

As a reminder, the MBC is the smallest concentration meeting the test's criterion for killing.

Values after ≈ are worked out from the molar mass of the structure shown. Some results are limits rather than exact numbers.

For `Oc1cc(Cl)ccc1Oc1ccc(Cl)cc1Cl` [Triclosan, 2,4,4′-trichloro-2′-hydroxy-diphenyl ether], the “penetration into human skin” value in data set [1] is given as “minimal penetration into human skin”. Moreover, the “reduction of bacterial counts on hands” value in data set [2] was 2.8 log10. Further, the solubility in water entry in data set [3] is “substantially insoluble in water”. Also, the “dilution at which preparation is still bactericidal” value in data set [4] is reported as at most 10 fold. Also, the minimum bactericidal concentrations with bacteria is 25 to 500 µg/mL. For the same molecule, the values for the MBC in the data set on S. aureus and in the data set on E. coli were 7.5 µg/mL (≈ 25.9 µM) and 1.3 µg/mL (≈ 4.49 µM), respectively.
